Laboratory results: patent publication US20190315823A1, “SMALL CATIONIC ANTI-BIOFILM AND IDR PEPTIDES” (priority 2013, published 2019)
Ends that are not written are not given here.

What was measured:
[1] = test system: human peripheral blood mononuclear cells (MCP-1); test: SPOT-synthesized derivative screen: production of chemokine MCP-1; format: cell-based; settings: Table 12, No LPS, human PBMC, peptide at ~18-24 μM; for MCP1: background subtracted 139 (HH2 derivatives), 170 (1018 derivatives), 242 (1002 and hybrid peptides) pg/ml
In short: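 MCP-1 was quantified by capture ELISA in cleared culture supernatants of treated human peripheral blood mononuclear cells. Cells came from heparinized volunteer blood via Ficoll gradient and were seeded at 0.75 to 1×10^6 cells/ml (37 °C, 5% CO2).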

[2] = test system: methicillin resistant Staphylococcus aureus (MRSA) biofilm; settings: approximate peptide concentration […] (around 3 μg/ml); compared to untreated samples
In short: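 Peptide was present from inoculation onward, with bacteria seeded at 1/100 from overnight cultures into BM2 biofilm medium or Luria Broth. Crystal violet staining of surface-attached cells (A595) quantified biofilm reduction at 22–46 h. K. pneumoniae was additionally screened in a real-time Bioflux flow device for some peptides.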

[3] = test system: LPS-stimulated human peripheral blood mononuclear cells (IL1-β); format: cell-based; settings: Table 12, cells stimulated with 10 ng/ml LPS; for IL1β Production: LPS alone 1313 (HH2 derivatives), 1927 (1018 derivatives), 2455 (1002 and hybrid peptides) pg/ml

Substance	Fold increase in MCP1 cf. untreated cells [1]	MCP1 [1] [pg/mL]	% Biofilm inhibition [2] [%]	Fold change in IL1β relative to no peptide LPS stimulated cells [3]	IL1β Production [3] [pg/mL]
1018-K8: single substituted 1018 peptide (VRLIVAVKIWRR-NH2) [Peptide 1018-K8]	8.3	1237	65	0.18	242
1002-A4: single substituted 1002 peptide (VQRALIVWRIRK-NH2) [Peptide 1002-A4]	0.9	-36.2	52	0.27	655
1002-R1: single substituted 1002 peptide (RQRWLIVWRIRK-NH2) [Peptide 1002-R1]	5.3	1043.2	67	0.05	127
HH2-L7: single substituted HH2 peptide (VQLRIRLAVIRA-NH2)	19	3138	68	1.05	1378
1002-G7: single substituted 1002 peptide (VQRWLIGWRIRK-NH2) [Peptide 1002-G7]	0.9	-36.2	54	0.14	353
1018-I8: single substituted 1018 peptide (VRLIVAVIIWRR-NH2) [Peptide 1018-I8]	1.0	2	39	0.86	1125
1018-V8: single substituted 1018 peptide (VRLIVAVVIWRR-NH2) [Peptide 1018-V8]	1.2	29	34	0.35	463
1002-G10: single substituted 1002 peptide (VQRWLIVWRGRK-NH2) [Peptide 1002-G10]	1.4	91.3	35	0.09	222
1018-W3: single substituted 1018 peptide (VRWIVAVRIWRR-NH2) [Peptide 1018-W3]	6.6	953	66	0.10	127
1002-G9: single substituted 1002 peptide (VQRWLIVWGIRK-NH2) [Peptide 1002-G9]	2.8	444.4	44	0.05	127
HH2-L2: single substituted HH2 peptide (VLLRIRVAVIRA-NH2)	13	1950	69	0.89	1172
HH2-L1: single substituted HH2 peptide (LQLRIRVAVIRA-NH2)	4.8	654	72	0.94	1234
HH2-I3: single substituted HH2 peptide (VQIRIRVAVIRA-NH2)	6.8	982	62	1.02	1336
1018-G5: single substituted 1018 peptide (VRLIGAVRIWRR-NH2) [Peptide 1018-G5]	13	2090	38	1.23	1620
1002-V10: single substituted 1002 peptide (VQRWLIVWRVRK-NH2) [Peptide 1002-V10]	2.3	308.0	63	0.05	127
HH2-R7: single substituted HH2 peptide (VQLRIRRAVIRA-NH2)	1.6	98	3	1.49	1959
HH2-K2: single substituted HH2 peptide (VKLRIRVAVIRA-NH2)	7.9	1168	69	0.71	937
1002-G11: single substituted 1002 peptide (VQRWLIVWRIGK-NH2) [Peptide 1002-G11]	2.9	465.0	60	0.05	127
1002-V12: single substituted 1002 peptide (VQRWLIVWRIRV-NH2) [Peptide 1002-V12]	1.3	76.4	67	0.05	127
HH2-G11: single substituted HH2 peptide (VQLRIRVAVIGA-NH2)	2.0	177	72	0.99	1303
1018-K4: single substituted 1018 peptide (VRLKVAVRIWRR-NH2) [Peptide 1018-K4]	1.2	40	41	0.30	393
HH2-Q3: single substituted HH2 peptide (VQQRIRVAVIRA-NH2)	6.8	989	28	0.87	1141
HH2-Q8: single substituted HH2 peptide (VQLRIRVQVIRA-NH2)	9.4	1421	65	0.97	1279
1018-G1: single substituted 1018 peptide (GRLIVAVRIWRR-NH2) [Peptide 1018-G1]	216	36611	38	0.10	127
